Where a name gives a salt, the structure may show the parent alone.
target: T1, human PAH with the R408W mutation (Homo sapiens, UniProt P00439, R408W); assay: Cell Based Phenylalanine Flux Assay; conditions: A375 R408W cells, 24 hrs with compound, then 20 μM sepiapterin and 800 μM 13C9,15N-Phenylalanine for 4 hours; 13C-Tyrosine by LC-MS; average where tested multiple times; read-out: AC50
T1 construct: expressed in transfected cells
T1 sequence (P00439 1-452 R408W): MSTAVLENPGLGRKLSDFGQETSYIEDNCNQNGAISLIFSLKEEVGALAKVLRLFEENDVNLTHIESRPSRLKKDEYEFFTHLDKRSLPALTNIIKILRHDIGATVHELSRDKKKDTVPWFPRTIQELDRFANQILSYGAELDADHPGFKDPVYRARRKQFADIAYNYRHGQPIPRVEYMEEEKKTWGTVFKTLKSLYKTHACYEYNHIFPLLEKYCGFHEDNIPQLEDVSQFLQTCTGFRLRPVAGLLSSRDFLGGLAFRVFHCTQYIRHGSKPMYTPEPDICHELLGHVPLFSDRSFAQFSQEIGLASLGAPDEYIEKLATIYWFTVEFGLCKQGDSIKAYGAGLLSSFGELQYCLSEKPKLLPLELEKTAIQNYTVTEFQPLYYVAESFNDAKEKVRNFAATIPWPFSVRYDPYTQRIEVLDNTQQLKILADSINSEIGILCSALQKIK

Structure (SMILES) | AC50 [nM]
CN1CCN(c2nnc(C(=O)N3CCc4[nH]cnc4C3c3cn4ccccc4n3)o2)CC1 (stereo not shown) | > 5000
Cc1nc(C(C)(C)O)oc1C(=O)N1CCc2[nH]cnc2C1c1cn2ccccc2n1 (stereo not shown) | 1000 to 5000
Cn1cncc1-c1nnc(C(=O)N2CCc3[nH]cnc3C2c2ncc3ccccc3n2)o1 (stereo not shown) | 1000 to 5000
CC1CN(C(=O)c2cnn3cc(CN(C)C)ccc23)C(c2cc3ccccc3cn2)c2nc[nH]c21 (stereo not shown) | > 5000
O=C(c1cnco1)N1CCc2[nH]cnc2C1c1ccc2ccccc2n1 (stereo not shown) | > 5000
Cn1nc(C(F)(F)F)nc1C(=O)N1CCc2[nH]cnc2C1c1ccc2ccccc2n1 (stereo not shown) | 1000 to 5000

The remaining lines, values ahead:

AC50 [nM] | Structure (SMILES)
> 5000 | O=C(c1cncs1)N1CCc2[nH]cnc2C1c1cc2ccccc2cn1 (stereo not shown)
1000 to 5000 | Cc1nnc(C(=O)N2CCc3[nH]cnc3C2c2ccc3ccccc3n2)o1 (stereo not shown)

same assay, conditions: A375 cells expressing human R408W PAH; 24 hrs compound incubation; 13C-Tyrosine by LC-MS; average where tested multiple times; read-out: AC50

Structure (SMILES) | AC50 [nM]
O=C(c1nnc(-c2cnn(C3CCC3)c2)o1)N1CCc2[nH]cnc2[C@@H]1c1ncc2ccccc2n1 [Example 188, (R)-(5-(1-cyclobutyl-1H-pyrazol-4-yl)-1,3,4-oxadiazol-2-yl)(4-(quinazolin-2-yl)-6,7-dihydro-1H-imidazo[4,5-c]pyridin-5(4H)-yl)methanone] | 1000 to 5000
CC(C)(O)c1nc(Cl)c(C(=O)N2CCc3[nH]cnc3C2c2ccc3ccccc3n2)o1 (stereo in doubt) [Example 113, (R)-(4-chloro-2-(2-hydroxypropan-2-yl)oxazol-5-yl)(4-(quinolin-2-yl)-6,7-dihydro-1H-imidazo[4,5-c]pyridin-5(4H)-yl)methanone] | < 500
O=C(c1nnc(-c2cnn(C(F)F)c2)o1)N1CCc2[nH]cnc2C1c1ccc2ccccc2n1 (stereo in doubt) [Example 64, (S)-(5-(1-(difluoromethyl)-1H-pyrazol-4-yl)-1,3,4-oxadiazol-2-yl)(4-(quinolin-2-yl)-6,7-dihydro-1H-imidazo[4,5-c]pyridin-5(4H)-yl)methanone] | > 5000
CC(C)(C)c1nnc(C(=O)N2CCc3[nH]cnc3[C@@H]2c2ncc3ccccc3n2)o1 [Example 202, (R)-(5-(tert-butyl)-1,3,4-oxadiazol-2-yl)(4-(quinazolin-2-yl)-6,7-dihydro-1H-imidazo[4,5-c]pyridin-5(4H)-yl)methanone] | > 5000

Results, then the molecule that gave them:

AC50 [nM] | Structure (SMILES)
500 to 1000 | Cn1cc(-c2nnc(C(=O)N3CCc4[nH]cnc4[C@H]3c3ncc4ccccc4n3)o2)cn1 [Example 143, (S)-(5-(1-methyl-1H-pyrazol-4-yl)-1,3,4-oxadiazol-2-yl)(4-(quinazolin-2-yl)-6,7-dihydro-1H-imidazo[4,5-c]pyridin-5(4H)-yl)methanone]
< 500 | Cc1nc(C(C)(C)O)oc1C(=O)N1CCc2[nH]cnc2[C@H]1c1ncc2ccccc2n1 [Example 141, (S)-(2-(2-hydroxypropan-2-yl)-4-methyloxazol-5-yl)(4-(quinazolin-2-yl)-6,7-dihydro-1H-imidazo[4,5-c]pyridin-5(4H)-yl)methanone hydrochloride]
500 to 1000 | O=C(c1nnc(C2CC2)o1)N1CCc2[nH]cnc2[C@H]1c1ncc2ccccc2n1 [Example 139, (S)-(5-cyclopropyl-1,3,4-oxadiazol-2-yl)(4-(quinazolin-2-yl)-6,7-dihydro-1H-imidazo[4,5-c]pyridin-5(4H)-yl)methanone]
500 to 1000 | O=C(Cn1cncn1)N1CCc2[nH]cnc2[C@H]1c1cc2ccccc2cn1 [Example 369, (R)-1-(4-(isoquinolin-3-yl)-6,7-dihydro-1H-imidazo[4,5-c]pyridin-5(4H)-yl)-2-(1H-1,2,4-triazol-1-yl)ethanone]
< 500 | Cc1nc(-c2cnn(C)c2)oc1C(=O)N1CCc2[nH]cnc2[C@H]1c1ccc2ccccc2n1 [Example 26]
500 to 1000 | CC(F)(F)c1ncc(C(=O)N2CCc3[nH]cnc3C2c2ccc3ccccc3n2)s1 (stereo in doubt) [Example 39, (R)-(2-(1,1-difluoroethyl)thiazol-5-yl)(4-(quinolin-2-yl)-6,7-dihydro-1H-imidazo[4,5-c]pyridin-5(4H)-yl)methanone]
> 5000 | Cc1nc(-c2ccccn2)oc1C(=O)N1CCc2[nH]cnc2[C@@H]1c1cc2ccccc2nn1 [Example 207]

Source: patent publication US20250262201A1, “COMPOUNDS AND METHODS USEFUL FOR STABILIZING PHENYLALANINE HYDROXYLASE MUTATIONS” (Agios Pharmaceuticals, Inc., priority 2022, published 2025)
